Assay results reported in US9745328B2, “Flap modulators” (JANSSEN PHARMACEUTICA NV, priority 2013, dated 2017).
Where a name gives a salt, the structure may show the parent alone.

These compounds were tested against human FLAP (Homo sapiens (Human), UniProt P20292) (assay: FLAP binding assay (HTRF format)). Settings: Table 6 (additional runs), human FLAP wild type.
Sequence of human FLAP (P20292 whole entry): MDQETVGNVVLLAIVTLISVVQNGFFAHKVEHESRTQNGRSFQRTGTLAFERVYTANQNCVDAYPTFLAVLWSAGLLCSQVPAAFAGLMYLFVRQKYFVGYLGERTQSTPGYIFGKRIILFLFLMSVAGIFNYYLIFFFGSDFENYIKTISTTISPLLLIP
Summary of the method: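 Averaged over two plates (duplicate wells per plate); output given as HTRF ratio.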
`Cc1cccc(-c2ccc(-c3cnc(N)nc3)c(F)c2)c1S(=O)(=O)NC(C)(C)C` [Example 287, 4′-(2-Aminopyrimidin-5-yl)-N-tert-butyl-3′-fluoro-3-methylbiphenyl-2-sulfonamide trifluoroacetic acid salt] showed a Ki of 8.5 nM. `Nc1ncc(-c2ccc(-c3ccccc3S(=O)(=O)N[C@@H](c3ccccc3)C(F)(F)F)cc2F)cn1` [Example 292, 4′-(2-Aminopyrimidin-5-yl)-3′-fluoro-N-[(1S)-2,2,2-trifluoro-1-phenylethyl]biphenyl-2-sulfonamide trifluoroacetic acid salt] was tested, and the Ki was 9.9 nM. `CC(C)CNS(=O)(=O)c1ccccc1-c1ccc(-c2cnc(N)nc2)c(F)c1` [Example 294, 4′-(2-Aminopyrimidin-5-yl)-3′-fluoro-N-(2-methylpropyl)biphenyl-2-sulfonamide trifiuoroacetic acid salt] showed a Ki of 2.4 nM. Work on `CCNS(=O)(=O)c1ccccc1-c1ccc(-c2cnc(N)nc2)c(F)c1` [Example 295, 4′-(2-Aminopyrimidin-5-yl)-N-ethyl-3′-fluorobiphenyl-2-sulfonamide trifluoroacetic acid salt] yielded a Ki of 20 nM. With `CC(C)(NS(=O)(=O)c1ccccc1-c1ccc(-c2cnc(N)nc2)c(F)c1)C(F)(F)F` [Example 296, 4′-(2-Aminopyrimidin-5-yl)-3′-fluoro-N-(2,2,2-trifluoro-1,1-dimethylethyl)biphenyl-2-sulfonamide trifluoroacetic acid salt] the Ki was 3.1 nM. For `C[C@H](NS(=O)(=O)c1ccccc1-c1ccc(-c2cnc(N)nc2)c(F)c1)C(F)(F)F` [Example 297, 4′-(2-Aminopyrimidin-5-yl)-3′-fluoro-N-[(1S)-2,2,2-trifluoro-1-methylethyl]biphenyl-2-sulfonamide trifluoroacetic acid salt], the Ki was 3.2 nM. Compound `Nc1ncc(-c2ccc(-c3ccccc3S(=O)(=O)N3CCCC3)cc2F)cn1` [Example 298, 5-[3-Fluoro-2′-(pyrrolidin-1-ylsulfonyl)biphenyl-4-yl]pyrimidin-2-amine trifluoroacetic acid salt] has a Ki of 80.6 nM. `CC(C)(C)NS(=O)(=O)c1ccccc1-c1ccc(-c2cnc(N)nc2)c(F)c1` [Example 305, 4′-(2-aminopyrimidin-5-yl)-N-(tert-butyl)-3′-fluoro[1,1′-biphenyl]-2-sulfonamide trifluoroacetic acid salt] showed a Ki of 1.6 nM. `C[C@H](NS(=O)(=O)c1ccccc1-c1ccc(-c2cnc(N)nc2)c(F)c1)C(=O)OC(C)(C)C` [Example 307, tert-Butyl N-{[4′-(2-aminopyrimidin-5-yl)-3′-fluorobiphenyl-2-yl]sulfonyl}-L-alaninate] gave a Ki of 4.5 nM. Work on `Nc1ncc(-c2ccc(-c3ccccc3S(=O)(=O)N3CC4(COC4)C3)cc2F)cn1` [Example 312, 5-(2′-(2-oxa-6-azaspiro[3.3]heptan-6-ylsulfonyl)-3-fluoro-[1,1′-biphenyl]-4-yl)pyrimidin-2-amine] yielded a Ki of 323 nM. `N#CC1CN(S(=O)(=O)c2ccccc2-c2ccc(-c3cnc(N)nc3)c(F)c2)C1` [Example 314, 1-((4′-(2-aminopyrimidin-5-yl)-3′-fluoro-[1,1′-biphenyl]-2-yl)sulfonyl)azetidine-3-carbonitrile] showed a Ki of 88.8 nM. Compound `Nc1ncc(-c2ccc(-c3ccccc3S(=O)(=O)N3CC(O)(C(F)(F)F)C3)cc2F)cn1` [Example 315] has a Ki of 1.3 nM. `Nc1ncc(-c2ccc(-c3ccccc3S(=O)(=O)Cc3nc(C4CC4)no3)cc2F)cn1` [Example 321, 5-(2′-{[(3-Cyclopropyl-1,2,4-oxadiazol-5-yl)methyl]sulfonyl}-3-fluorobiphenyl-4-yl)pyrimidin-2-amine] showed a Ki of 505 nM. `CNS(=O)(=O)c1cc(C(F)(F)F)ccc1-c1ccc(-c2cnc(N)nc2)c(F)c1` [Example 325, 4′-(2-aminopyrimidin-5-yl)-3′-fluoro-N-methyl-4-(trifluoromethyl)biphenyl-2-sulfonamide] was tested, and the Ki was 4.7 nM. `CCNS(=O)(=O)c1cc(C(F)(F)F)ccc1-c1ccc(-c2cnc(N)nc2)c(F)c1` [Example 327] gave a Ki of 1.8 nM. Compound `Nc1ncc(-c2ccc(-c3ccccc3Sc3ccnc(N)n3)cc2F)cn1` [Example 335, 4-{[4′-(2-Aminopyrimidin-5-yl)-3′-fluorobiphenyl-2-yl]sulfanyl}pyrimidin-2-amine formate salt] has a Ki of 1.9 nM. In the case of `CC(C)(C)NS(=O)(=O)c1ccccc1-c1ccc(-c2ccc(N)nc2)c(F)c1` [Example 342], the Ki is reported as 1.8 nM. In the case of `CCN(CC)S(=O)(=O)c1ccccc1-c1ccc(-c2ccc(N)nc2)c(F)c1` [Example 343, 4′-(6-aminopyridin-3-yl)-N,N-diethyl-3′-fluoro-[1,1′-biphenyl]-2-sulfonamide], the Ki is reported as 4.3 nM. Compound `Nc1ccc(-c2ccc(-c3ccccc3S(=O)(=O)NC3CCCCC3)cc2F)cn1` [Example 346, 4′-(6-Aminopyridin-3-yl)-N-cyclohexyl-3′-fluoro-[1,1′-biphenyl]-2-sulfonamide] has a Ki of 4.5 nM. Work on `CCC(C)(C)NS(=O)(=O)c1ccccc1-c1ccc(-c2ccc(N)nc2)c(F)c1` [Example 349, 4′-(6-aminopyridin-3-yl)-3′-fluoro-N-(tert-pentyl)-[1,1′-biphenyl]-2-sulfonamide] yielded a Ki of 0.9 nM. `CC(C)(NS(=O)(=O)c1ccccc1-c1ccc(-c2ccc(N)nc2)c(F)c1)C(F)(F)F` [Example 350, 4′-(6-aminopyridin-3-yl)-3′-fluoro-N-(1,1,1-trifluoro-2-methylpropan-2-yl)-[1,1′-biphenyl]-2-sulfonamide] was tested, and the Ki was 2.4 nM. Work on `CC1(NS(=O)(=O)c2ccccc2-c2ccc(-c3ccc(N)nc3)c(F)c2)CCC1` [Example 353, 4′-(6-aminopyridin-3-yl)-3′-fluoro-N-(1-methylcyclobutyl)-[1,1′-biphenyl]-2-sulfonamide] yielded a Ki of 1.4 nM. `CC(C)(C)OC(=O)N1CC(O)(CNS(=O)(=O)c2ccccc2-c2ccc(-c3ccc(N)nc3)c(F)c2)C1` [Example 357, tert-butyl 3-((4′-(6-aminopyridin-3-yl)-3′-fluoro-[1,1′-biphenyl]-2-ylsulfonamido)methyl)-3-hydroxyazetidine-1-carboxylate] gave a Ki of 114 nM. Compound `Nc1ccc(-c2ccc(-c3ccccc3S(=O)(=O)N3CCC(CCO)CC3)cc2F)cn1` [Example 359] has a Ki of 4.3 nM. `C[C@@H](CO)NS(=O)(=O)c1ccccc1-c1ccc(-c2cnc3[nH]ccc3c2)c(F)c1` [Example 362, 3′-Fluoro-N-[(1S)-2-hydroxy-1-methylethyl]-4′-(1H-pyrrolo[2,3-b]pyridin-5-yl)biphenyl-2-sulfonamide] gave a Ki of 1.2 nM. With `C[C@H](CO)NS(=O)(=O)c1ccccc1-c1ccc(-c2cnc3[nH]ccc3c2)c(F)c1` [Example 363, 3′-Fluoro-N-[(1R)-2-hydroxy-1-methylethyl]-4′-(1H-pyrrolo[2,3-b]pyridin-5-yl)biphenyl-2-sulfonamide] the Ki was 0.6 nM. `O=C1NCC[C@@H]1NS(=O)(=O)c1ccccc1-c1ccc(-c2cnc3[nH]ccc3c2)c(F)c1` [Example 364, 3′-Fluoro-N-[(3S)-2-oxopyrrolidin-3-yl]-4′-(1H-pyrrolo[2,3-b]pyridin-5-yl)biphenyl-2-sulfonamide] was tested, and the Ki was 2.5 nM. For `NS(=O)(=O)c1ccccc1-c1ccc(-c2cnc3[nH]ccc3c2)c(F)c1` [Example 368, 3′-Fluoro-4′-(1H-pyrrolo[2,3-b]pyridin 5-yl)biphenyl-2-sulfonamide], the Ki was 13.2 nM. For `CN(C)S(=O)(=O)c1ccccc1-c1ccc(-c2cnc3[nH]ccc3n2)c(F)c1` [Example 370, 3′-Fluoro-N,N-dimethyl-4′-(5H-pyrrolo[2,3-b]pyrazin-2-yl)biphenyl-2-sulfonamide], the Ki was 1.9 nM. Work on `CC(C)(C)NS(=O)(=O)c1ccccc1-c1ccc(-c2cnc3[nH]ccc3n2)c(F)c1` [Example 371, N-tert-Butyl-3′-fluoro-4′-(5H-pyrrolo[2,3-b]pyrazin-2-yl)biphenyl-2-sulfonamide] yielded a Ki of 0.7 nM. `O=S(=O)(c1ccccc1-c1ccc(-c2cnc3[nH]ccc3n2)c(F)c1)N1CCCCC1` [Example 374, 2-[3-Fluoro-2′-(piperidin-1-ylsulfonyl)biphenyl-4-yl)-5H-pyrrolo[2,3-b]pyrazine] gave a Ki of 1.2 nM. For `CNS(=O)(=O)c1ccccc1-c1ccc(-c2cnc3[nH]ccc3n2)c(F)c1` [Example 379, 3′-Fluoro-N-methyl-4′-(5H-pyrrolo[2,3-b]pyrazin-2-yl)biphenyl-2-sulfonamide], the Ki was 1.3 nM. For `O=S1(=O)CCN(S(=O)(=O)c2ccccc2-c2ccc(-c3cnc4[nH]ccc4n3)c(F)c2)CC1` [Example 382, 2-{2′-[(1,1-Dioxidothiomorpholin-4-yl)sulfonyl]-3-fluorobiphenyl-4-yl}-5H-pyrrolo[2,3-b]pyrazine], the Ki was 0.5 nM. In the case of `CSc1ccc(F)cc1-c1ccc(-c2cnc3[nH]ccc3n2)c(F)c1` [Example 383], the Ki is reported as 7.9 nM. In the case of `CCSc1ccccc1-c1ccc(-c2cnc3[nH]ccc3n2)c(F)c1` [Example 384, 2-[2′-(Ethylsulfanyl)-3-fluorobiphenyl-4-yl]-5H-pyrrolo[2,3-b]pyrazine], the Ki is reported as 3.9 nM. Work on `O=S(=O)(c1ccccc1-c1ccc(-c2cnc3c(c2)OCCN3)c(F)c1)N1CCCCC1` [Example 386, 7-[3-Fluoro-2′-(piperidin-1-ylsulfonyl)biphenyl-4-yl]-3,4-dihydro-2H-pyrido[3,2-b][1,4]oxazine] yielded a Ki of 1.8 nM. `C[C@@H](CO)NS(=O)(=O)c1ccccc1-c1ccc(-c2cnc3c(c2)OCCN3)c(F)c1` [Example 388, 4′-(3,4-Dihydro-2H-pyrido[3,2-b]l[1,4]oxazin-7-yl)-3′-fluoro-N-[(1S)-2-hydroxy-1-methylethyl]biphenyl-2-sulfonamide] showed a Ki of 1.7 nM. With `NC1CCN(S(=O)(=O)c2ccccc2-c2ccc(-c3cnc4c(c3)OCCN4)c(F)c2)CC1` [Example 389, 1-{[4′-(3,4-Dihydro-2H-pyrido[3,2-b][1,4]oxazin-7-yl)-3′-fluorobiphenyl-2-yl]sulfonyl}piperidin-4-amine] the Ki was 13.1 nM. For `C[C@H](CO)NS(=O)(=O)c1ccccc1-c1ccc(-c2cnc3c(c2)OCCN3)c(F)c1` [Example 390, 4′-(3,4-Dihydro-2H-pyrido[3,2-b][1,4]oxazin-7-yl)-3′-fluoro-N-[(1R)-2-hydroxy-1-methylethyl]biphenyl-2-sulfonamide], the Ki was 0.4 nM. With `O=S1(=O)CCN(S(=O)(=O)c2ccccc2-c2ccc(-c3cnc4c(c3)OCCN4)c(F)c2)CC1` [Example 392] the Ki was 0.9 nM.

Same assay, conditions: human FLAP wild type, a calculated value of 0.000 indicates Ki less than 1 nM
Work on `O=S1(=O)CCN(S(=O)(=O)c2ccccc2-c2ccc(-c3cnc4[nH]ccc4n3)c(F)c2)CC1` [Example 382, 2-{2′-[(1,1-Dioxidothiomorpholin-4-yl)sulfonyl]-3-fluorobiphenyl-4-yl}-5H-pyrrolo[2,3-b]pyrazine] yielded a Ki of less than 1 nM. In the case of `C[C@H](CO)NS(=O)(=O)c1ccccc1-c1ccc(-c2cnc3c(c2)OCCN3)c(F)c1` [Example 390, 4′-(3,4-Dihydro-2H-pyrido[3,2-b][1,4]oxazin-7-yl)-3′-fluoro-N-[(1R)-2-hydroxy-1-methylethyl]biphenyl-2-sulfonamide], the Ki is reported as less than 1 nM.
